The source of these data is US12286401B2, “Small molecules that sensitize HIV-1 infected cells to antibody dependent cellular cytotoxicity” (THE TRUSTEES OF THE UNIVERSITY OF PENNSYLVANIA, priority 2018, dated 2025).

One data set in a line: Solubility in PBS. The class given is physicochemical. Particulars: Yes/NO.
The subject of data set [1] is HIV-1JR-FL EnvΔCT expressed at the surface of HOS cells. Briefly: Cell-based ELISA (CBE), 17b readout. Particulars: for Fold over BNM-III-170 - 17b binding (±0.05): MCG analogs 50 μM, BNM-III-170 5 μM, 2G12 and DMSO normalized; for capacity to expose the CoRBS (17b binding, CBE): compounds 50 μM, result in words. Put shortly: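 HOS cells transiently expressing cytoplasmic-tail-truncated HIV-1JR-FL Env were treated 30 min at room temperature with compounds (50 μM), sCD4 ([…]) or DMSO, then 1 h with 17b antibody. Bound 17b was detected by HRP-conjugated anti-Fc chemiluminescence; values are fold over BNM-III-170 (5 μM), normalized to 2G12 and DMSO.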

Structures are written as SMILES. Where “and” joins values, the source holds several entries; their conditions need not be identical. Equal entries are not always repeated.

Consider `CS(=O)(=O)N1CCC[C@H](C(=O)Nc2ccc(Br)cc2)C1` [(S)-MCG-III-027-A02], for which, in the data set “Solubility in PBS”, the “Solubility (in PBS)” value was “Yes”. Moreover, the “Fold over BNM-III-170 - 17b binding (±0.05)” value (shortened to “Fold”) in data set [1] amounted to 0.36 fold.
In the same order, the values of `CS(=O)(=O)N1CCC[C@H](C(=O)Nc2ccc(F)cc2)C1` [(S)-MCG-III-027-A03] are “Yes” and 0.12 fold.
For `CS(=O)(=O)N1CCC[C@H](C(=O)Nc2cccc(Cl)c2)C1` [(S)-MCG-III-027-B01], the “Solubility (in PBS)” value in “Solubility in PBS” is given as “Yes”. The “Fold” value in data set [1] is recorded as 0.10 fold.
In the same order, the values of `CS(=O)(=O)N1CCC[C@H](C(=O)Nc2cccc(Br)c2)C1` [(S)-MCG-III-027-B02] are “Yes” and 0.10 fold.
In the same order, the values of `CS(=O)(=O)N1CCC[C@H](C(=O)Nc2cccc(F)c2)C1` [(S)-MCG-III-027-B03] are “Yes” and 0.13 fold.
In the same order, the values of `CS(=O)(=O)N1CCC[C@H](C(=O)Nc2cccc(C(F)(F)F)c2)C1` [(S)-MCG-III-027-B04] are “Yes” and 0.07 fold.
Turning to `COc1cccc(NC(=O)[C@H]2CCCN(S(C)(=O)=O)C2)c1` [(S)-MCG-III-027-B05], the “Solubility (in PBS)” value in the data set “Solubility in PBS” was “Yes”. In addition, the “Fold” value in data set [1] is listed as 0.06 fold.
With `CS(=O)(=O)N1CCC[C@H](C(=O)Nc2ccccc2Cl)C1` [(S)-MCG-III-027-C01], the “Solubility (in PBS)” value in the data set “Solubility in PBS” was “Yes”. Moreover, the “Fold” value in data set [1] was 0.06 fold.
For `CS(=O)(=O)N1CCC[C@H](C(=O)Nc2ccc(F)cc2F)C1` [(S)-MCG-III-027-D04], in that order: “Yes” and 0.07 fold.
Turning to `CS(=O)(=O)N1CCC[C@H](C(=O)Nc2ccc(Cl)c(F)c2)C1` [(S)-MCG-III-027-D05], the “Solubility (in PBS)” value in “Solubility in PBS” was “Yes”. For the same molecule, in data set [1], the “Fold” value is 0.46 fold and 0.58 fold; the “capacity to expose the CoRBS (17b binding, CBE)” value (“capacity to expose the CoRBS” below) is given as “enhanced the capacity”.
On to `CCS(=O)(=O)N1CCC[C@H](C(=O)Nc2ccc(Cl)c(F)c2)C1` [(S)-MCG-III-085-C01], for which, in “Solubility in PBS”, the “Solubility (in PBS)” value is given as “Yes”. Moreover, the “Fold” value in data set [1] is on record as 0.35 fold.
`Cn1cnc(S(=O)(=O)N2CCC[C@H](C(=O)Nc3ccc(Cl)c(F)c3)C2)c1` [(S)-MCG-III-116-A02]: in data set [1], the “Fold” value came to 0.24 fold.
As to `COC(=O)N1CCC[C@H](C(=O)Nc2ccc(Cl)c(F)c2)C1` [(S)-MCG-III-188-A01], in the data set “Solubility in PBS”, the “Solubility (in PBS)” value is reported as “Yes”. In data set [1], the “Fold” value stood at 0.50 fold and the “capacity to expose the CoRBS” value is listed as “higher activity”.
Turning to `CCOC(=O)N1CCC[C@H](C(=O)Nc2ccc(Cl)c(F)c2)C1` [(S)-MCG-III-188-A02], in the data set “Solubility in PBS”, the “Solubility (in PBS)” value is “Yes”. Moreover, in data set [1], the “Fold” value amounted to 0.53 fold and the “capacity to expose the CoRBS” value is “higher activity”.
Regarding `CCCNC(=O)N1CCC[C@H](C(=O)Nc2ccc(Cl)c(F)c2)C1` [(S)-MCG-IV-031-A05], in data set [1], the “Fold” value stood at 0.55 fold and the “capacity to expose the CoRBS” value is reported as “higher activity”.
Regarding `NCCNC(=O)N1CCC[C@H](C(=O)Nc2ccc(Cl)c(F)c2)C1` [(S)-MCG-IV-210], in data set [1], the “Fold” value was determined as 0.58 fold and the “capacity to expose the CoRBS” value is “higher activity”.
For `O=C(Nc1ccc(Cl)c(F)c1)C1CCCN(S(=O)(=O)c2ccccc2)C1` (stereo not drawn) [MCG-III-157-B03], in data set [1], the “Fold” value is recorded as 0.43 fold.
`Cn1cnc(S(=O)(=O)N2CCCC(C(=O)Nc3ccc(Cl)c(F)c3)C2)c1` (stereo not drawn) [MCG-III-157-B04]: the “Solubility (in PBS)” value in the data set “Solubility in PBS” is reported as “Yes”. The “Fold” value in data set [1] stood at 0.69 fold.
In the case of `O=C(Nc1ccc(Cl)c(F)c1)C1CCCOC1` (stereo not drawn) [MCG-III-207], in the data set “Solubility in PBS”, the “Solubility (in PBS)” value is recorded as “Yes”. Moreover, the “Fold” value in data set [1] turned out to be 0.48 fold.
